Experiments:
mouse lenses [1] = assay: AcK-bearing proteins in WS fraction of treated mouse lenses (Western blot); conditions: 1 mM, 24 hours, vs untreated controls (p<0.01) and Aggrelyte-2C (p<0.001)
Method: Mouse and human lenses were treated with aggrelytes as described in Example 10. Water-soluble proteins from mouse and human lenses were obtained as described in Example 13. Effects of aggrelyte treatment on AcK-bearing proteins in the WS fractions were evaluated by Western blot analysis as described in Example 5. For Western blotting, 10-20 μg of protein from each lens sample was used and each sample was separately processed three times and analyzed.

mouse lenses [2] = assay: AcK in WS fraction of treated mouse lenses (LC-MS/MS); conditions: 1 mM, 24 hours, vs untreated controls and Aggrelyte-2C (p<0.0001)
Method: (§1) Mouse and human lenses were treated with aggrelytes as described in Example 10. Water-soluble proteins from mouse and human lenses were obtained as described in Example 13. Effects of aggrelyte treatment on AcK-bearing proteins in the WS fractions were evaluated by LC-MS/MS analysis as described in Example 6.

human lenses [3] = assay: AcK in WS cortical and nuclear fractions of treated human lenses (LC-MS/MS); conditions: 1 mM, 72 h, vs untreated controls
Method: as §1

human recombinant αAC = molecular target: T1, human recombinant αAC (Homo sapiens, UniProt P02489); assay: AGE formation (CML, CEL) in glycated recombinant αAC; type: biochemical; conditions: αAC 3 mg/mL pretreated with 10 mM aggrelyte-2 for 24 h, glycating mixture 5 days
T1 sequence (P02489 1-173): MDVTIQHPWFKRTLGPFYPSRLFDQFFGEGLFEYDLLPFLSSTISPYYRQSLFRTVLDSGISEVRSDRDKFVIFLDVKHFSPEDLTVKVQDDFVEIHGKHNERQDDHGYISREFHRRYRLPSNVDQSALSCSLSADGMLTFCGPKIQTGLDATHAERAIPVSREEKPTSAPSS
Method: To investigate the effects of Aggrelyte-2 on advanced glycation end product (AGE) formation, human recombinant αAC (3 mg/mL) or γD-crystallin (γDC, 2 mg/mL) in PBS was treated with or without aggrelyte-2 (10 mM for αAC and 1.25 mM for γDC) for 24 h, dialyzed against 100 mM sodium phosphate buffer pH 7.4 for 16 h and incubated with or without a glycating mixture (2 mM ascorbate, 25 mM D-glucose and 250 μM methylglyoxal) in 100 mM sodium phosphate buffer pH 7.4 for 5 days (after adding 0.002% sodium azide) at 37° C. The incubated proteins were dialyzed against PBS for 16 h, treated with 100 mM sodium borohydride for 1 h at room temperature, and acid hydrolyzed. Two AGEs, N^−-carboxymethyllysine (CML) and N^□-carboxyethyllysine (CEL), were measured by LC-MS/MS as described above. Each sample was separately processed 3-4 times.

mouse lenses [4] = assay: Stiffness of ex vivo mouse lenses (Example 18); set-up: species or system mouse (C57BL/6J); conditions: 1 mM, 24 hours, ex vivo mouse lenses (3-6 months old); not significant
Method: In this example, the lenses were dissected from the eyes of mice (C57BL/6J, 3-6 months old, Jackson Laboratories, Stock No. 000664) by a posterior approach and incubated without (“Control”) or with Aggrelyte-2 or Aggrelyte-2A (1 mM) for 24 hours in serum-free and phenol-red-free MEM (297 mOsm) at 37° C. Lens stiffness was measured as in Example 10, except that the load was applied at 50 mg increments.

human lenses [5] = assay: Stiffness of ex vivo human lenses (Example 22); conditions: 250 μM, 48 hours, ex vivo human lenses (47-67 years)
Method: To test the effects of Aggrelyte-2 and Aggrelyte-2A on human lenses (age: 47-67 years), lenses were incubated in media containing freshly dissolved aggrelyte (250 μM) for 48 hours, with aggrelyte replacement after 24 hours. One lens from each donor pair was treated with aggrelyte, while the other was used as the control. After incubation, lens stiffness was measured, as described above in Example 20.

levels of both CML and CEL (AGEs) after glycation (human recombinant αAC): significantly reduced (p<0.0001)
Structure (SMILES): COC(=O)[C@H](CSC(C)=O)NC(C)=O [Aggrelyte-2, N,S-diacetyl-L-cysteine methyl ester]
AcK modifications in WS proteins (Western blot) (mouse lenses [1]): significantly higher AcK modifications | AcK modifications in WS proteins (LC-MS/MS) (mouse lenses [2]): significantly higher AcK modifications | AcK content, cortical protein fraction (LC-MS/MS) (human lenses [3]): Significantly higher (p<0.05) | AcK, nuclear fraction (LC-MS/MS) (human lenses [3]): not statistically greater | reduction of lens stiffness (mouse lenses [4]): approximately 20% | effect on lens stiffness (human lenses [5]): no effect on stiffness
